Assay results from publication PMC4459817, “Vasculotide reduces endothelial permeability and tumor cell extravasation in the absence of binding to or agonistic activation of Tie2” (EMBO Molecular Medicine, 2015).

Tests used:
[1] = test system: dermal HMVECs; test: modified Boyden chamber, tumor cell-conditioned media (TC-CM) stimulated dextran permeability; assay type: cell-based, human; settings: 20 ng/mL VT or 400 ng/mL Ang1 vs PBS; paired t-test, n = 11 experimental replicates; Fig4A
Protocol: To investigate this possibility in vitro, we performed modified Boyden chamber assays where we stimulated ECs with tumor cell-conditioned media (TC-CM)—that is, supplement-reduced EC growth media containing all the cytokines naturally secreted by LM2-4^luc, SN12^luc, or HT29^luc cells over 30 hours of hypoxic incubation (1% O2).
Meta-analyses of treatment effects on dextran permeability (A) and tumor cell migration (B), where each datapoint represents the mean of an independent experiment, averaged over 2–3 biological replicates (inserts) per treatment group and normalized internally within that same experiment.
Endothelial cells (ECs) were grown on cell culture inserts with uncoated 8-μm-pore PET filter membranes to 100% confluency. See Supplementary Fig S4 for detailed timelines. […] Permeability assays: A total of 100 μg of FITC-dextran (Sigma FD-20S) was dispensed into the upper chamber media. After 30 min of thrombin stimulation or 4–6 h of TC-CM stimulation, FITC fluorescence (ex/em = 490/520 nm) was measured from a 50 μl sample of the lower chamber media. […] CMPTX fluorescence from migrated TCs was then quantified from 10× microscopy images using a MATLAB (MathWorks, Natick, MA, USA) script; five images (technical replicates) were analyzed per insert. […]

[2] = test system: Tie2+ ECs (HMVEC-LBl); test: MTS cell viability assay, endothelial cells; assay type: cell-based, human; settings: for IC50: Homo sapiens, Endothelial cell, 48 h, SU in MTS viability assay, predetermined from dose-response curves, cell line of IC50 not clearly printed
Protocol: TCs were cultured in DMEM High Glucose basal media supplemented with 5% FBS and grown humidified incubators at 37 °C, 21%O2 and 5%CO2 unless otherwise specified. LM2-4 luc is a highly metastatically aggressive variant of the human breast carcinoma MDA-MB-231 cell line (derived through serial in vivo selection of lung metastases from orthotopic implantations in immunodeficient mice) that has been transfected with a firefly luciferase vector (Man et al, 2007; Ebos et al, 2009). HT29luc is a human colon carcinoma cell line also transfected with the luciferase gene (Hackl et al, 2013). SN12luc refers to a luciferase-tagged and highly metastatic clone of a human renal cell carcinoma cell line, SN12-PM6-L1luc (Jedeszko et al, 2015). MeWo is a human melanoma cell line (Ebos et al, 2009).
2. Endothelial cells (ECs)
ECs were grown in humidified incubators at 37 °C, 21%O2 and 5%CO2 unless otherwise specified.
Primary human microvascular ECs derived from adult lung blood vessels (HMVEC-LBl, Lonza CC-2815 or HLMEC ) or neonatal dermal blood vessels (HMVEC-DBl, Lonza CC-2813 or HDMEC) were grown in EBM-2 basal media (Lonza CC-3156), supplemented with EGM-2-MV growth factors (Lonza CC-4147, which includes 5% FBS and 2 ng/mL VEGF). Primary human umbilical vein ECs (HUVECs) were grown on 1% gelatinized plates in F12K media, supplemented with 10% FBS, 0.1 mg/mL heparin sodium, 10 ng/mL EGF, 10 ng/mL VEGF, 5 ng/mL bFGF and penicillin + streptomycin + 2mM L-glutamine (P/S/Glut). Transformed human EA.hy926 and murine MS1 ECs were grown in DMEM + 10% FBS + P/S/Glut (+ HAT for EA.hy926).
3. […]
5,000 LM2-4luc or HMVEC-LBl cells, in 100uL of their regular growth media, were seeded per well on a 96-well plate. […] Absorbances were read at 490nm and background-corrected with reference 560nm readings or acellular treatment-only […]
4. […] Protein concentrations in TC-CM vs. control media were measured using: a Quantikine ELISA kit (R&D Systems DVE00) for human VEGF; a FlowCytomix Multiplex kit (eBioscience BMS810FF) for human IL-6 and IL-8; and a BCA protein assay kit (Thermo Scientific) for total protein.

Molecule | transendothelial macromolecular (dextran) permeability in presence of TC-CM [1] | interference with SU inhibition of ECs ([2]; 48 h MTS, VT + SU, Supplementary Fig S2) | IC50 ([2]; 'VEGF-rich' media (0.5% FBS + 50 ng/mL VEGF)) [µM] | IC50 ([2]; 'normal' media (5% FBS)) [µM]
CHHHRHSF [Vasculotide, 4-armed maleimide-functionalized polyethylene glycol (PEG) backbone to link together four cysteine-capped T7 peptides, that is, CHHHRHSF] | reduced transendothelial macromolecular permeability (P < 0.05 | did not interfere with SU inhibition of Tie2^+ ECs | – | –
CCN(CC)CCNC(=O)c1c(C)[nH]c(/C=C2\C(=O)Nc3ccc(F)cc32)c1C [sunitinib, reference compound] | – | – | 5 | 2
recombinant human Ang1 (rhAng1) (ligand, UniProt Q15389 16-498, looked up, angiopoietin-1, human, recombinant; also called angiopoietin-1; source: bought: R&D Systems (named for the Boyden chamber experiments)) HIGCSNQRRSPENSGRRYNRIQHGQCAYTFILPEHDGNCRESTTDQYNTNALQRDAPHVEPDFSSQKLQHLEHVMENYTQWLQKLENYIVENMKSEMAQIQQNAVQNHTATMLEIGTSLLSQTAEQTRKLTDVETQVLNQTSRLEIQLLENSLSTYKLEKQLLQQTNEILKIHEKNSLLEHKILEMEGKHKEELDTLKEEKENLQGLVTRQTYIIQELEKQLNRATTNNSVLQKQQLELMDTVHNLVNLCTKEGVLLKGGKREEEKPFRDCADVYQAGFNKSGIYTIYINNMPEPKKVFCNMDVNGGGWTVIQHREDGSLDFQRGWKEYKMGFGNPSGEYWLGNEFIFAITSQRQYMLRIELMDWEGNRAYSQYDRFHIGNEKQNYRLYLKGHTGTAGKQSSLILHGADFSTKDADNDNCMCKCALMLTGGWWFDACGPSNLNGMFYTAGQNHGKLNGIKWHYFKGPSYSLRSTTMMIRPLDF | reduced transendothelial macromolecular permeability (P < 0.05 | – | – | –
